Measured values reported in BigSolDB 2.1.

NC(=O)C[C@H](N)C(=O)O.O
solubility (mole fraction)
Conditions | 278.15 K | 283.15 K | 288.15 K | 293.15 K | 298.15 K | 303.15 K | 308.15 K | 313.15 K | 318.15 K | 323.15 K
in acetonitrile | 5.98e-06 | 8.11e-06 | 1.09e-05 | 1.44e-05 | 1.89e-05 | 2.49e-05 | 3.2e-05 | 4.11e-05 | 5.24e-05 | 6.64e-05
in ethanol | 1.32e-05 | 1.77e-05 | 2.36e-05 | 3.11e-05 | 4.06e-05 | 5.25e-05 | 6.73e-05 | 8.57e-05 | 0.000108 | 0.000136
in ethyl acetate | 1.25e-05 | 1.73e-05 | 2.29e-05 | 2.99e-05 | 3.89e-05 | 5.01e-05 | 6.39e-05 | 8.21e-05 | 0.000102 | 0.000129
in isobutanol | 1.11e-05 | 1.49e-05 | 1.97e-05 | 2.59e-05 | 3.38e-05 | 4.36e-05 | 5.58e-05 | 6.98e-05 | 8.97e-05 | 0.000114
in isopropanol | 9.67e-06 | 1.26e-05 | 1.65e-05 | 2.22e-05 | 2.91e-05 | 3.81e-05 | 4.96e-05 | 6.19e-05 | 8.17e-05 | 0.000104
in methanol | 1.54e-05 | 2.04e-05 | 2.7e-05 | 3.52e-05 | 4.56e-05 | 5.86e-05 | 7.42e-05 | 9.4e-05 | 0.000118 | 0.000147
in methyl acetate | 1.66e-05 | 2.23e-05 | 2.91e-05 | 3.78e-05 | 4.89e-05 | 6.28e-05 | 7.98e-05 | 0.000101 | 0.000127 | 0.000158
in n-butanol | 1.07e-05 | 1.43e-05 | 1.9e-05 | 2.5e-05 | 3.26e-05 | 4.2e-05 | 5.38e-05 | 6.84e-05 | 8.62e-05 | 0.000105
in n-butyl acetate | 1.57e-05 | 2.09e-05 | 2.7e-05 | 3.49e-05 | 4.54e-05 | 5.76e-05 | 7.24e-05 | 9.16e-05 | 0.000114 | 0.000142
in n-propanol | 1.07e-05 | 1.45e-05 | 1.94e-05 | 2.57e-05 | 3.37e-05 | 4.4e-05 | 5.68e-05 | 7.28e-05 | 9.28e-05 | 0.000117
in n-propyl acetate | 1.63e-05 | 2.14e-05 | 2.81e-05 | 3.66e-05 | 4.76e-05 | 6.11e-05 | 7.78e-05 | 9.84e-05 | 0.000121 | 0.000154
in water | 0.0014 | 0.00178 | 0.00227 | 0.0028 | 0.00344 | 0.00422 | 0.00518 | 0.00627 | 0.0076 | 0.00914
